The source of these data is PMC7173930, “EAT-18 is an essential auxiliary protein interacting with the non-alpha nAChR subunit EAT-2 to form a functional receptor” (PLoS Pathogens, 2020).

Structures are written as SMILES. Read-outs that look alike come from different tables or passages of the source.

As a reminder, the pEC50 is the negative decadic logarithm of the EC50, by convention in mol/L. Usually IC50 stands for the midpoint of a concentration-inhibition curve.

Assay [1] has as its target T1, Cel-EAT-2 and Cel-EAT-18c nAChR (Caenorhabditis elegans, UniProt Q9U298).
T1 sequence (Q9U298 22-474): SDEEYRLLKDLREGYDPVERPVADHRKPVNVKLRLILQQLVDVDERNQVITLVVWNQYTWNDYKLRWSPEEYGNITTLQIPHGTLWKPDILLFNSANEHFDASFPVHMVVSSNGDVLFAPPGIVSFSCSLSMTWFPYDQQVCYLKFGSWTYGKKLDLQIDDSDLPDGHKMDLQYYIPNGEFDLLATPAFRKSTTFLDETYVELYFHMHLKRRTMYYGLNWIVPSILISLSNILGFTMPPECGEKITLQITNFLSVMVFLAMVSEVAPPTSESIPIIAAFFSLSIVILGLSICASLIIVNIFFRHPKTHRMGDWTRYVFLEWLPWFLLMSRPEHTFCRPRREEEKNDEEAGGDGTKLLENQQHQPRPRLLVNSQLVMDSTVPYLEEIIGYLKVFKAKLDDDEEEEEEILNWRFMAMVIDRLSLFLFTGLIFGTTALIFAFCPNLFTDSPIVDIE
The experiment in a line: Two-electrode voltage-clamp of Cel-EAT-2 + Cel-EAT-18c nAChR expressed in Xenopus oocytes. It counts as cell-based.

Assay [2] addresses T2, Cel-EAT-2 and Cel-EAT-18c receptor (Cel-EAT-2 nAChR) (Caenorhabditis elegans, UniProt Q9U298).
T2 construct: homomeric EAT-2 co-expressed with Cel-EAT-18c in Xenopus laevis oocytes
The experiment in a line: Two-electrode voltage-clamp of oocytes expressing Cel-EAT-2 with Cel-EAT-18c; agonist peak currents normalized to 100 uM ACh and fitted to the Hill equation. Particulars: n = 6; read-out: pEC50 (mean±SEM) (converted). It counts as cell-based, Xenopus laevis oocytes. Background: Two-electrode voltage clamp holds a large cell at a set potential and records current.
Procedure: Oocyte injections and two-electrode electrophysiology recordings were performed as previously described [48].
GraphPad Prism 8.0 software (GraphPad Software Inc., USA) was used to analyze the data. […] We used One-way analysis of variance (ANOVA) and Extra sum of squares F-test to test statistical differences (statistically different if p<0.05). Tukeys’ multiple comparison was used as a post-hoc test.

For assay [3], the system named is nAChRs expressed in the pharynx of A. suum. The experiment in a line: tissue or blood. In kind it is cell-based. As for the experimental part:
A. suum pharyngeal dissections and electrophysiology recordings were adapted from Martin [49]. Briefly, pharynx was dissected out from the head region of the worm and mounted on Sylgard (Sigma-Aldrich Inc., USA)—lined in a double jacketed bath chamber maintained at 28°C. The muscle layer surrounding the anterior 3rd of the pharynx was preserved for anchoring. The intestine attached to the posterior end of the pharynx was used for stretching and pinning down. The preparation was continuously perfused with calcium-free Ascaris Perienteric Fluid-Ringer (calcium-free APF-Ringer) composition (mM): NaCl 23, Na-acetate 110, KCl 24, MgCl2 11, glucose 11, and HEPES 5; NaOH or acetic acid was added to adjust the pH to 7.6. […] The rate of localized perfusion was 3.5–4 ml min^−1 through a 20-gauge needle, which was placed directly above the recording region of the pharynx. […] We used 3 M potassium acetate in our micropipettes to get the final resistances of 4–7 MΩ for the voltage sensing and 0.5–1 MΩ for the current injecting electrode for current-clamp recordings. The current-injecting electrode injected hyperpolarizing step currents of −1000 nA for 500 ms at 0.3 Hz.
We constructed the sigmoidal concentration-response plots by fitting the data by nonlinear regression to determine the pEC50 and the maximal response (Rmax). Extra sum of squares F-test was used to test statistical differences between pEC50, slope, and maximal response. The significance levels were set to P<0.05.
In applications containing arecoline and pilocarpine, we used mecamylamine, a nAChR antagonist (30µM) to inhibit nAChRs and to allow only mAChR activation.

The target of assay [4] is T3, Cel-EAT-2 + Asu-EAT-18 + Asu-RIC-3 (Caenorhabditis elegans, UniProt Q9U298). The experiment in a line: cell-based.
For assay [5], the target named is T3, Cel-EAT-2 + Asu-EAT-18 + Asu-RIC-3.
Another assay deals with Asu-EAT-2 nAChR (Ascaris suum, UniProt F1L9Y6). The experiment in a line: cell-based. It counts as cell-based, A. suum. The settings on record: read-out: current response normalized to the control 100 μM ACh current.
For assay [6], the system named is α3β4, α3β2, α4β4 and α4β2 vertebrate nAChRs. Particulars: read-out: IC50 of reversible channel block; cited from earlier work.

Asu-EAT-2 nAChR, sequence (F1L9Y6 entry or part of it): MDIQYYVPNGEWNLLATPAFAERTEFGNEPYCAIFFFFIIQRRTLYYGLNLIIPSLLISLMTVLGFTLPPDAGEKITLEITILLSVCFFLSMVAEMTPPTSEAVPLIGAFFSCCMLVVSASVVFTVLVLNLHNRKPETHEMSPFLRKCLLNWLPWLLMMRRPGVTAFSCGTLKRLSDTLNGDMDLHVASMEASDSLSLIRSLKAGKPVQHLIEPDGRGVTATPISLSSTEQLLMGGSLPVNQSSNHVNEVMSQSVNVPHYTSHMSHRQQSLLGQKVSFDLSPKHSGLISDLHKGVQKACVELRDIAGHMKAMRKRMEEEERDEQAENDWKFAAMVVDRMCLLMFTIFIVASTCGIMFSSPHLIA
Asu-EAT-2 nAChR, sequence (F1L1D9 entry or part of it, further chain): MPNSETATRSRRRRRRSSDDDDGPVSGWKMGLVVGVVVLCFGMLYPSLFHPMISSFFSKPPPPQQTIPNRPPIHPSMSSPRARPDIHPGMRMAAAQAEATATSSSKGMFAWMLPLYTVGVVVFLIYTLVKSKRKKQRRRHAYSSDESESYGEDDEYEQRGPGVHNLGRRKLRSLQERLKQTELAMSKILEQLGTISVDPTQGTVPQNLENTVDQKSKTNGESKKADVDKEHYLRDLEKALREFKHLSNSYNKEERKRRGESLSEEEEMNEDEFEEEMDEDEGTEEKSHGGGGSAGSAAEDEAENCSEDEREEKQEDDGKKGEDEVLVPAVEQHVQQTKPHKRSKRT
T2 sequence (Q86DB4 entry or part of it, one chain of several): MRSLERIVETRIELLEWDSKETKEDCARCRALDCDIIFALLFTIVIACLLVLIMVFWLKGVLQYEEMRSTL

In the case of `CCCC(=O)OCC[N+](C)(C)C` [butyrylcholine], in assay [1] (agonist 100 μM, mean±SEM, n≥6), the “current response normalized to the control 100 μM ACh current (Imax)” value is given as 50.0±5.0%. Further, in assay [1] (agonist concentration-response, 100 μM ACh as internal standard, mean±SEM), the pEC50 was 3.9±0.1. In assay [1] (agonist concentration-response, mean±SEM), the “Hill slope (nH)” value is recorded as 2.8±1.8. For the same compound, in assay [2], the EC50 was 126 µM.
In the case of `CN1CCC[C@H]1c1cccnc1` [nicotine], the EC50 in assay [1] was 63.1 µM; in assay [3] (Ascaris suum, read-out: pEC50 (converted)), 10 µM; in assay [4] it was 18.7 µM. The “Hill slope (nH)” value in assay [1] is 2.4±0.4; in assay [3], 1.7±0.6. The Imax in assay [1] is 54.6 ± 2.6%; in assay [5], 96.5 ± 2.3%. In addition, the “current response normalized to the control 100 μM ACh current (Imax)” value in assay [1] is 55 ± 8.0%. In assay [1] (read-out: current response normalized to the control 100 μM ACh current (Imax)), the Emax at 100 µM is 55 ± 8%. Also, the maximal response in assay [3] was found to be 79.3 ± 4.3 μS. The Emax in assay [3] (Ascaris suum, read-out: % change in membrane conductance (δG) normalized to the ACh δG) was determined as 92 ± 6.2%; at Asu-EAT-2 nAChR, 105 ± 5.7%.
Consider `CN1[C@@H]2CC[C@H]1C[C@@H](OC(=O)C(CO)c1ccccc1)C2` (some centres unmarked) [atropine], for which, in assay [6], the IC50 is 4 to 10 µM.
